{"source": "paper PMC2734176", "about": "“The Aurora Kinase in Trypanosoma brucei Plays Distinctive Roles in Metaphase-Anaphase Transition and Cytokinetic Initiation” (PLoS Pathogens, 2009)", "biological_target": "T1, TbAUK1 (recombinant GST-tagged TbAUK1) (Trypanosoma brucei, UniProt Q384J7)", "T1 construct": "gene AUK1; no tag cleavage mentioned; tested without TbCPC1/TbCPC2", "T1 sequence (Q384J7 1-309)": "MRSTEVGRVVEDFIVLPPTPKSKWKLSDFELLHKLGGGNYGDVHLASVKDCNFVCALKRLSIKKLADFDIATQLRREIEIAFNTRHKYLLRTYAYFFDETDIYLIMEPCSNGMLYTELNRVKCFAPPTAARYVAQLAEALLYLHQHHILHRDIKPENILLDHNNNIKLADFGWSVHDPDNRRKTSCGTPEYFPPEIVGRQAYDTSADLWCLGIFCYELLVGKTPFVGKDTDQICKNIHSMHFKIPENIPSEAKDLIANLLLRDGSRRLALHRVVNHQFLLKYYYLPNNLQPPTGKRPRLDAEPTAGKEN", "assay": "in vitro kinase assay, […] phosphorylation of GST-histone H3, SDS-PAGE and Phosphor-Imager", "assay_type": "biochemical", "data": [{"smiles": "Cc1cc(Nc2cc(N3CCN(C)CC3)nc(Sc3ccc(NC(=O)C4CC4)cc3)n2)[nH]n1", "note": "[VX-680]", "values": [{"measurement": "IC50", "result": 190, "unit": "nM"}]}]}
